In patent US20230084927A1, “GLUCOSE UPTAKE INHIBITORS AND USES THEREOF” (METABOMED LTD., priority 2019, published 2023):

Legend:
[1] = system: SDH-KO-HRAS cells (SDHB-deficient); test: Cellular / differential toxicity assay (CellTiter-Glo, 3 days); type: cell-based, murine; details: for EC50: Mus musculus, 72 h, toxicity, SDH-KO cells, 3 days, CellTiter-Glo, read-out: EC50 (uM) SDH-KO-HTAS-C17; for differential toxicity, SDH-KO cells compared to SDH-WT cells: viability EC50s, 72 hours, Example 6
Method in brief: (§1)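 Isogenic SDHB-deficient (HRAS-transformed SDH-KO) and SDH-WT cells grown in DMEM-F12 with 1 mM glutamine and 3% FBS, plated with compound (10-point dilution from 10 uM to 0.0065 uM or lower) for 3 days at 37 °C, 5% CO2. Viability by CellTiter-Glo luminescence; EC50 calculated.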

SDH-WT cells = test: as above; type: cell-based, murine; details: Mus musculus, 72 h, toxicity, SDH-WT cells, 3 days, CellTiter-Glo; read-out: EC50 (uM) SDH-WT
Method in brief: as §1

Row | Compound | EC50 [1] | EC50 (SDH-WT cells) | differential toxicity, SDH-KO cells compared to SDH-WT cells [1]
1 | CC1(C)Cc2nc3sc4c(NCCc5ccc(C(N)=O)cc5)ncnc4c3cc2CO1 [Compound 144] | < 1 µM | > 10 µM | 
2 | COc1ccc(CCNc2ncnc3c2sc2nc4c(cc23)CC(C(=O)O)CC4)cc1F (centres unmarked) [Compound 209] | > 10 µM | > 10 µM | 
3 | COc1ccc(CCN(C(C)=O)c2ncnc3c2sc2nc4c(cc23)COC(C)(C)C4)cc1F [Compound 160] | > 10 µM | > 10 µM | 
4 | CC1(C)Cc2nc3sc4c(N5CCCC5)ncnc4c3cc2CO1 [Compound 298] | > 10 µM | > 10 µM | 
5 | CC1(C)Cc2nc3sc4c(NN)ncnc4c3cc2CO1 [Compound 295] | > 10 µM | > 10 µM | 
6 | COc1ccc(Nc2ncnc3c2sc2nc4c(cc23)COC(C)(C)C4)cc1OC [Compound 132] | > 10 µM | > 10 µM | 
7 | Cc1nc(NCCC(C)C)c2sc3nc4c(cc3c2n1)COC(C)(C)C4 [Compound 251] | > 10 µM | > 10 µM | 
8 | COCCOCCOCCN(C)Cc1c2c(nc3sc4c(NCCc5ccc6[nH]cnc6c5)ncnc4c13)CC(C)(C)OC2 [Compound 331, N-(2-(1H-Benzo[d]imidazol-5-yl)ethyl)-8,8-dimethyl-11-(2-methyl-5,8,11-trioxa-2-azadodecyl)-7,10-dihydro-8H-pyrano[3″,4″:5′,6′]pyrido[3′,2′:4,5]thieno[3,2-d]pyrimidin-4-amine] | < 1 µM | 3 to 10 µM | > 42
9 | CC1(C)Cc2nc3sc4c(N5CCC(Cc6ccccc6)CC5)ncnc4c3cc2CO1 [Compound 279] | > 10 µM | > 10 µM | 
10 | Cc1nc(NC(C)Cc2ccccc2)c2sc3nc4c(cc3c2n1)COC(C)(C)C4 (centres unmarked) [Compound 266] | > 10 µM | 3 to 10 µM | 
11 | CC1(C)Cc2nc3sc4c(NCCc5ccc(N)c([N+](=O)[O-])c5)ncnc4c3cc2CO1 [Compound 205] | < 1 µM | 3 to 10 µM | 
12 | Cc1nc(NCCc2ccc3[nH]cnc3c2)c2sc3nc4c(cc3c2n1)COC(C)(C)C4 [Compound 313] | 3 to 10 µM | 3 to 10 µM | 
13 | Cc1nc(N)c2sc3nc4c(cc3c2n1)COC(C)(C)C4 [Compound 237] | 3 to 10 µM | > 10 µM | 
14 | CC(O)CN(CC(C)O)c1ncnc2c1sc1nc3c(cc12)COC(C)(C)C3 (centres unmarked) [Compound 285] | > 10 µM | > 10 µM | 
15 | CCCCN(CC)c1nc(C)nc2c1sc1nc3c(cc12)COC(C)(C)C3 [Compound 269] | > 10 µM | > 10 µM | 
16 | CC(=O)CN(C(=O)C(F)(F)F)c1ccc(CCNc2ncnc3c2sc2nc4c(cc23)COC(C)(C)C4)cc1F [Compound 198] | < 1 µM | 3 to 10 µM | 
17 | Cc1nc(NCCN2CCOCC2)c2sc3nc4c(cc3c2n1)COC(C)(C)C4 [Compound 230] | > 10 µM | > 10 µM | 
18 | COCCOCCOCCOCCNCc1c2c(nc3sc4c(NCCc5ccc6[nH]cnc6c5)ncnc4c13)CC(C)(C)OC2 [Compound 321, N-(2-(1H-Benzo[d]imidazol-5-yl)ethyl)-8,8-dimethyl-11-(5,8,11,14-tetraoxa-2-azapentadecyl)-7,10-dihydro-8H-pyrano[3″,4″:5′,6′]pyrido[3′,2′:4,5]thieno[3,2-d]pyrimidin-4-amine] | 1 to 3 µM | 3 to 10 µM | 
19 | CCCc1nc(NCCc2ccc3[nH]cnc3c2)c2sc3nc4c(cc3c2n1)COC(C)(C)C4 [Compound 314] | 3 to 10 µM | 3 to 10 µM | 
20 | CCCCN(C)c1nc(C)nc2c1sc1nc3c(cc12)COC(C)(C)C3 [Compound 242] | > 10 µM | > 10 µM | 

Row | Compound | EC50 [1] | EC50 (SDH-WT cells) | differential toxicity, SDH-KO cells compared to SDH-WT cells [1]
21 | CCC(C)Nc1ncnc2c1sc1nc3c(cc12)COC(C)(C)C3 (centres unmarked) [Compound 299] | > 10 µM | > 10 µM | 
22 | CC1(C)Cc2nc3sc4c(NCCc5ccc(N)c(F)c5)ncnc4c3cc2CO1 [Compound 203] | < 1 µM | > 10 µM | 
23 | COCCOCCOCCOCCN(C)Cc1c2c(nc3sc4c(NCCc5ccc6[nH]cnc6c5)ncnc4c13)CC(C)(C)OC2 [Compound 330, N-(2-(1H-Benzo[d]imidazol-5-yl)ethyl)-8,8-dimethyl-11-(2-methyl-5,8,11,14-tetraoxa-2-azapentadecyl)-7,10-dihydro-8H-pyrano[3″,4″:5′,6′]pyrido[3′,2′:4,5]thieno[3,2-d]pyrimidin-4-amine] | < 1 µM | 3 to 10 µM | > 56
24 | CC1(C)Cc2nc3sc4c(NCCN5CCOCC5)ncnc4c3cc2CO1 [Compound 267] | > 10 µM | > 10 µM | 
25 | COc1ccc(CCNc2ncnc3c2sc2ncccc23)cc1OC [Compound 126] | 1 to 3 µM | 3 to 10 µM | 
26 | CC(=O)Nc1ccc(CCNc2ncnc3c2sc2nc4c(cc23)COC(C)(C)C4)cc1F [Compound 204] | 1 to 3 µM | > 10 µM | 
27 | CC1(C)Cc2nc3sc4c(NCCc5ccc(NCc6ccccc6)c(N)c5)ncnc4c3cc2CO1 [Compound 192] | < 1 µM | < 1 µM | 
28 | CC1(C)Cc2nc3sc4c(NCCc5ccc6[nH]cnc6c5)ncnc4c3c(C(=O)O)c2CO1 [Compound 171, 4-((2-(1H-Benzo[d]imidazol-6-yl)ethyl)amino)-8,8-dimethyl-8,10-dihydro-7H-pyrano[3″,4″:5′,6′]pyrido[3′,2′:4,5]thieno[3,2-d]pyrimidine-11-carboxylic Acid] | 3 to 10 µM | 3 to 10 µM | 
29 | CCCCCCNc1nc(C)nc2c1sc1nc3c(cc12)COC(C)(C)C3 [Compound 215] | > 10 µM | > 10 µM | 
30 | Cc1nc(NCc2ccc(OC(C)C)cc2)c2sc3nc4c(cc3c2n1)COC(C)(C)C4 [Compound 235] | > 10 µM | > 10 µM | 
31 | COCCCCc1c2c(nc3sc4c(NCCc5ccc6[nH]cnc6c5)ncnc4c13)CC(C)(C)OC2 [Compound 335] | < 1 µM | 3 to 10 µM | 
32 | c1cnc2sc3c(NCCc4ccc5[nH]cnc5c4)nc(C4CCCCC4)nc3c2c1 [Compound 310, N-(2-(1H-Benzo[d]imidazol-5-yl)ethyl)-2-cyclohexylpyrido[3′,2′:4,5]thieno[3,2-d]pyrimidin-4-amine] | > 10 µM | > 10 µM | 
33 | COc1ccc(CCNC(=O)c2sc3nc4c(cc3c2NC(=O)C(F)(F)F)COC(C)(C)C4)cc1F [Compound 207] | 3 to 10 µM | 1 to 3 µM | 
34 | CNc1ccc(CCN(C)c2ncnc3c2sc2nc4c(cc23)COC(C)(C)C4)cc1[N+](=O)[O-] [Compound 181] | 3 to 10 µM | 3 to 10 µM | 
35 | c1ccc(-c2nc(NCCc3ccc4[nH]cnc4c3)c3sc4ncccc4c3n2)cc1 [Compound 307, N-(2-(1H-Benzo[d]imidazol-5-yl)ethyl)-2-phenylpyrido[3′,2′:4,5]thieno[3,2-d]pyrimidin-4-amine] | > 10 µM | 3 to 10 µM | 
36 | CC1(C)Cc2nc3sc4c(NCCc5ccc(C(=O)O)cc5)ncnc4c3cc2CO1 [Compound 159] | > 10 µM | > 10 µM | 
37 | COc1ccc(CCNc2ncnc3c2sc2nc4c(cc23)CCCC4)cc1F [Compound 109, N-(3-Fluoro-4-methoxyphenethyl)-7,8,9,10-tetrahydropyrimido[4′,5′:4,5]-thieno[2,3-b]quinolin-4-amine] | > 10 µM | > 10 µM | 
38 | CC1(C)Cc2nc3sc4c(NCCc5ccc6[nH]cnc6c5)ncnc4c3c(C(=O)OCCCCCCCCCCCC(=O)O)c2CO1 [Compound 212] | 3 to 10 µM | 3 to 10 µM | 
39 | CC1(C)Cc2nc3sc4c(NCCc5ccncc5)ncnc4c3cc2CO1 [Compound 127] | > 10 µM | > 10 µM | 
